Assay results from patent publication US9782371B2, “Composition for promoting remyelination in nerve cells comprising 2,5-dihydroxybenzenesulfonic acid and use thereof” (Samsung Electronics Co., Ltd., priority 2015, dated 2017).

Assays:
[1] = system: PMP22; test: PMP22 protein expression by Western blotting in rat Schwann cells overexpressing human PMP22; type: cell-based
Procedure: Rat Schwann cells were inoculated at a concentration of about 10^5 cells/mL into each well of a 12-well plate including 2 mL of a Dulbecco's Modified Eagle's Medium (DMEM) containing 10% fetal bovine serum (FBS), 100 units/mL of penicillin, and 100 units/mL of streptomycin, and incubated in a 5%-CO2 incubator at about 37° C. to a cell density of about 60% to about 65%. […] Rat Schwann cells are often used in in vitro models for neuronal function and differentiation. The rat Schwann cells used herein were modified to consistently overexpress the human PMP22 gene by lentivital mediated integration of PMP22 into a chromosome and selective use of puromycin-resistant markers, thereby constructing a new rat Schwann PMP22 cell model. The rat Schwann cells (ATCC number; CRL-2768) were purchased from the American Type Culture Collection (ATCC).
After 2 mL of the culture medium was removed, the resulting rat Schwann cells were washed with phosphate buffered saline (PBS), followed by adding a lysis solution containing a 0.5% triton X-100 in PBS thereto, collecting the cells using a scraper, leaving the cells on ice for about 30 minutes, and then disrupting the cells. […]

[2] = system: myelin surrounding axons of the posterior lateral line nerves (PLLs); test: Remyelination of peripheral nervous system (PLL myelin) in MTZ-demyelinated transformed zebrafish, GFP-fluorescence confocal microscopy; type: in vivo, Zebrafish (Danio rerio)
Procedure: Transformed Zebrafish (Danio rerio) in which genes respectively encoding an Mbp:EGFP fusion protein and a Claudink:EGFP fusion protein that are specifically expressed in myelin and emit fluorescence by using promoters of a myelin basic protein (MBP) gene and a Claudink gene were prepared, by transforming Zebrafish cells with genes respectively encoding an Mbp:EGFP fusion protein and a Claudink:EGFP fusion protein. Specifically, the NfsB virulence gene encodes a nitroreductase (NTR) enzyme. […] However, when metronidazole (MTZ) is added to cells, the cells convert MTZ into a cytotoxic material by using NTR, which induces apoptosis. Genetically engineered zebrafish, i.e., transformed zebrafish that express the NfsB virulence gene specifically in differentiated oligodendrocytes and Schwann cells were prepared by using promoters of mbp and claudink genes that specifically operate in differentiated myelin to express myelin-specific genes bound to myelin, and using the Gal4-UAS transactivator system. Next, it was confirmed that the NfsB virulence gene was myelin-specifically expressed in the transformed zebrafish.
As a result, an animal model of demyelination that is induced in the presence of MTZ was established. Hereinafter, this animal model is also referred to as zebrafish (Mbp (or claudink):gal4::UAS:nfsB (NTR, toxin)::UAS:gfp). After removing the added MTZ substrate from the culture medium, the transformed zebrafish were then cultured in a culture medium free of MTZ for 1 day, followed by a recovery period. This study, described in greater detail below, confirmed that natural remyelination occurred in the demyelinated central nervous system and peripheral nervous system and that ES drug has an effect of promoting remyelination. […]

[3] = system: Mauthner axons and myelin in the central nervous system; test: Remyelination of central nervous system (Mauthner axons) in MTZ-demyelinated transformed zebrafish, g-ratio; type: in vivo, Zebrafish (Danio rerio); settings: zebrafish ClaudinK line
Procedure: Transformed Zebrafish (Danio rerio) in which genes respectively encoding an Mbp:EGFP fusion protein and a Claudink:EGFP fusion protein that are specifically expressed in myelin and emit fluorescence by using promoters of a myelin basic protein (MBP) gene and a Claudink gene were prepared, by transforming Zebrafish cells with genes respectively encoding an Mbp:EGFP fusion protein and a Claudink:EGFP fusion protein. Specifically, the NfsB virulence gene encodes a nitroreductase (NTR) enzyme. […] However, when metronidazole (MTZ) is added to cells, the cells convert MTZ into a cytotoxic material by using NTR, which induces apoptosis. […]
FIG. 6 illustrates the results of GFP-originated fluorescence microscopy and red fluorescence microscopy with immunostaining by acetylated-tubulin that is expressed specific to axons, by using a confocal laser microscope on sections of Mauthner axons and myelin in the central nervous system of the zebrafish (ClaudinK:gal4::UAS:nfsB (NTR, toxin)::UAS:gfp) incubated under various conditions. […] The axon and fiber diameters were obtained by calculating the diameters from the intensities of GFP-originated fluorescence and red axonal fluorescence with the Image J program. […]

CCNCC.O=S(=O)(O)c1cc(O)ccc1O [ethamsylate, diethyl ammonium 2,5-dihydroxybenzene sulfonic acid] was tested, and the “expression level of PMP22 protein” value ([1]; 10 μM ethamsylate, incubation for 0.5, 1, 12, 24 and 48 hours, vs 0 hour control, FIG. 1 panel B) was “decreased compared to the control group”, the “amount of PMP22 protein expressed” value ([1]; 0.1, 1, 10, 100 μM ethamsylate in DMSO, about 24 hours, vs DMSO control, FIG. 1 panel A, n=4) was “decrease in the amount of PMP22 protein expressed” and the “ratio of myelinated axons to total axons” value ([2]; zebrafish Claudink line, 10 μM ES vs MTZ treated sample, FIGS. 4 and 5) was “significantly higher”. The “remyelination of PLL myelin (GFP and acetylated-tubulin fluorescence)” value ([2]; zebrafish Claudink:gal4::UAS:nfsB::UAS:gfp, 10 μM ES after MTZ, FIG. 4) was “promote remyelination”, the “myelin in the peripheral nervous system (GFP-originated green fluorescence)” value ([2]; zebrafish Mbp:gal4::UAS:nfsB::UAS:gfp, MTZ 4.5-6 dpf, washed, 10 μM ES 6-7 dpf (about 1 day), FIG. 3 panel D) was “completely remyelinated” and the “g-ratio (diameter ratio of axon to nerve fiber)” value ([3]; Mauthner axons, 10 μM ethamsylate vs MTZ treatment group, FIG. 8) was “remarkably reduced g-ratio”. The “regeneration or remyelination of demyelinated nerve cells in the central nervous system” value ([3]; incubated in presence of ethamsylate after MTZ, FIGS. 6 and 8) was “remyelinated with a significantly higher efficiency”.
